Laboratory results: patent publication US20230293517A1, “ANTAGONIST COMPOUNDS” (AdoRx Therapeutics Limited, priority 2020, published 2023)
Where a name gives a salt, the structure may show the parent alone.

Assays:
[1] = biological target: human Adenosine A1 receptor (Homo sapiens (Human), UniProt P30542); test: Adenosine receptor TR-FRET binding assay (A1); details: inhibition of binding of 100 nM CA200645, CHO cell membranes
Procedure, shortened: (§1)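 Compounds were serially diluted 1:3 in DMSO, then incubated with CHO membranes bearing Tb-tagged human receptor plus CA200645 (A2b 30 nM; A1, A2a, A3 100 nM) for 2 h at room temperature. Time-resolved FRET was read, non-specific binding subtracted using 10 μM XAC, and Ki calculated.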

[2] = biological target: human Adenosine A2a receptor (Homo sapiens (Human), UniProt P29274); test: Adenosine receptor TR-FRET binding assay (A2a); details: inhibition of binding of 100 nM CA200645, CHO cell membranes
Procedure, shortened: as §1

[3] = biological target: human Adenosine A2b receptor (Homo sapiens (Human), UniProt P29275); test: Adenosine receptor TR-FRET binding assay (A2b); details: TR-FRET, inhibition of binding of 30 nM CA200645, CHO cell membranes
Procedure, shortened: as §1

[4] = biological target: human Adenosine A3 receptor (Homo sapiens (Human), UniProt P0DMS8); test: Adenosine receptor TR-FRET binding assay (A3); details: inhibition of binding of 100 nM CA200645, CHO cell membranes
Procedure, shortened: as §1

Chain of human Adenosine A2a receptor (P29274 whole entry): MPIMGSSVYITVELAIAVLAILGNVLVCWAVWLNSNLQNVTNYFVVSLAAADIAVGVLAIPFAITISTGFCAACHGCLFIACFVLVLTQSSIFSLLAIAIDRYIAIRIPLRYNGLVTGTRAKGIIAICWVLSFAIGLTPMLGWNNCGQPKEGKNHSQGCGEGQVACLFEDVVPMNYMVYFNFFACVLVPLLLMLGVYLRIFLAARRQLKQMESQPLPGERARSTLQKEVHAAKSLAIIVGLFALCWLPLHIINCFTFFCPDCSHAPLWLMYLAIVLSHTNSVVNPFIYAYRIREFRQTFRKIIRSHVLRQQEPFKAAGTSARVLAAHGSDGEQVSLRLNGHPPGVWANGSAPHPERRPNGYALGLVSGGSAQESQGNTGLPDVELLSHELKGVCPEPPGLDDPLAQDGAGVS
Chain of human Adenosine A3 receptor (P0DMS8 whole entry): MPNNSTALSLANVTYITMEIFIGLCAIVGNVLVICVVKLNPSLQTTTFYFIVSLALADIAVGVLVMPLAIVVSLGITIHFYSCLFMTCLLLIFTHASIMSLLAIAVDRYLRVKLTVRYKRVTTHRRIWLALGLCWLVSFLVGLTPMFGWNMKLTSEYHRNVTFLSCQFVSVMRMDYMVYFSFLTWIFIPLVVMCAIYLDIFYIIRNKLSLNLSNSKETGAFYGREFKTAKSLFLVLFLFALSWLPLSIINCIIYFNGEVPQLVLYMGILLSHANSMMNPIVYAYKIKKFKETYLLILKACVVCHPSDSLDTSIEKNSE
Chain of human Adenosine A1 receptor (P30542 whole entry): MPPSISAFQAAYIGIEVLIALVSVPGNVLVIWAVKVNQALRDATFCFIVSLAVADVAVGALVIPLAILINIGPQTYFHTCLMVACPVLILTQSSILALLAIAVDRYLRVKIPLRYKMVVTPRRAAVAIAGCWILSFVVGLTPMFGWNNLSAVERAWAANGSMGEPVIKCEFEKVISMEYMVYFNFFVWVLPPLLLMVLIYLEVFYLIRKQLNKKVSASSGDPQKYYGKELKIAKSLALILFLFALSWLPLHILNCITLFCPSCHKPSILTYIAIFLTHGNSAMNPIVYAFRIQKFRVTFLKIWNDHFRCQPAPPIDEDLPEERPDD
Chain of human Adenosine A2b receptor (P29275 whole entry): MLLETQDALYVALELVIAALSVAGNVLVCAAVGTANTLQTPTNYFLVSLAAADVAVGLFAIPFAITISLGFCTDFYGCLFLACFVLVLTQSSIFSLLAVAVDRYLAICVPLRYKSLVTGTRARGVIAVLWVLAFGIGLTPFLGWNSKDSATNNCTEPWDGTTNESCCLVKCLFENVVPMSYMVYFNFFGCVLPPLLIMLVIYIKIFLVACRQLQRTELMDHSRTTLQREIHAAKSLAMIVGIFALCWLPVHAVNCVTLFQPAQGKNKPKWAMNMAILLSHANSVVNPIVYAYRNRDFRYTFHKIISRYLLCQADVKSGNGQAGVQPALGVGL

| SMILES | Ki [1] | Ki [2] | Ki [3] | Ki [4] |
| --- | --- | --- | --- | --- |
| Cc1cc(-c2sc(NC(=O)N3CCCC3)nc2-c2cccc(C#N)c2)cc(Cl)n1 [Example 3.2] | 12 nM | 0.4 nM | 0.7 nM | 1040 nM |
| Cc1cc(-c2sc(NC(=O)N3CCNC[C@@H]3CO)nc2-c2cccc(C#N)c2)cc(C)n1 [Example 13.5, (2R)-N-[4-(3-Cyanophenyl)-5-(2,6-dimethyl-4-pyridyl)thiazol-2-yl]-2-(hydroxymethyl)piperazine-1-carboxamide] | 84 nM | 9.87 nM | 18.8 nM | 226 nM |
| Cc1cc(-c2sc(NC(=O)N3CC(=O)N4CCCCC4C3)nc2-c2cccc(C#N)c2)cc(C)n1 (centres unmarked) [Example 6.15, N-[4-(3-Cyanophenyl)-5-(2,6-dimethyl-4-pyridyl)thiazol-2-yl]-4-oxo-3,6,7,8,9,9a-hexahydro-1H-pyrido[1,2-a]pyrazine-2-carboxamide] | 263 nM | 2.02 nM | 5.9 nM | 259 nM |
| Cc1cc(-c2sc(NC(=O)N3CCOC[C@@H]3C)nc2-c2cccc(C#N)c2)cc(C)n1 [Example 6.86, (3S)-N-[4-(3-Cyanophenyl)-5-(2,6-dimethyl-4-pyridyl)thiazol-2-yl]-3-methyl-morpholine-4-carboxamide] | 2 nM | 0.68 nM | 1.9 nM | 181 nM |
| COC(C)c1cc(-c2sc(NC(=O)N3CC4(COC4)C3)nc2-c2cccc(C#N)c2)cc(C)n1 (centres unmarked) [Example 22, N-[4-(3-Cyanophenyl)-5-[2-(1-methoxyethyl)-6-methyl-4-pyridyl]thiazol-2-yl]-2-oxa-6-azaspiro[3.3]heptane-6-carboxamide] | 7 nM | 0.2 nM | 3.2 nM | 2060 nM |
| Cc1cc(-c2sc(NC(=O)N3CCC(C#N)CC3)nc2-c2cccc(C#N)c2)cc(CO)n1 [Example 9.6] | 12 nM | 0.51 nM | 2.9 nM | 369 nM |
| Cc1cc(-c2sc(NC(=O)N3CCC(c4ncc[nH]4)CC3)nc2-c2cccc(C#N)c2)cc(C)n1 [Example 6.25, N-[4-(3-Cyanophenyl)-5-(2,6-dimethyl-4-pyridyl)thiazol-2-yl]-4-(1H-imidazol-2-yl)piperidine-1-carboxamide] | 2 nM | 1.73 nM | 1.1 nM | 94 nM |
| CNC(=O)C1CCN(C(=O)Nc2nc(-c3cccc(C#N)c3)c(-c3cc(C)nc(C)c3)s2)CC1 [Example 6.28, N1-[4-(3-Cyanophenyl)-5-(2,6-dimethyl-4-pyridyl)thiazol-2-yl]-N4-methyl-piperidine-1,4-dicarboxamide] | 32 nM | 4.84 nM | 3.2 nM | 226 nM |
| Cc1cc(-c2sc(NC(=O)N3C[C@@H]4C[C@H]3CN4C)nc2-c2cccc(C#N)c2)cc(C)n1 [Example 6.102, (1S,4S)-N-[4-(3-Cyanophenyl)-5-(2,6-dimethyl-4-pyridyl)thiazol-2-yl]-5-methyl-2,5-diazabicyclo[2.2.1]heptane-2-carboxamide] | 64 nM | 7.42 nM | 10.5 nM | 195 nM |
| Cc1cc(-c2sc(NC(=O)N3CCC[C@@H]3C(C)(C)O)nc2-c2cccc(C#N)c2)cc(Cl)n1 [Example 3, (2R)—N-[5-(2-Chloro-6-methyl-4-pyridyl)-4-(3-cyanophenyl)thiazol-2-yl]-2-(1-hydroxy-1-methyl-ethyl)pyrrolidine-1-carboxamide] | 1000 nM | 58.2 nM | 50.6 nM | 1980 nM |
| Cc1cc(-c2sc(NC(=O)N3CCN(C4COC4)CC3)nc2-c2cccc(C#N)c2)cc(CO)n1 [Example 9.4] | 410 nM | 4.19 nM | 20.1 nM | 1540 nM |
| Cc1cc(-c2sc(NC(=O)N3CCN4CCNC(=O)C4C3)nc2-c2cccc(C#N)c2)cc(C)n1 (centres unmarked) [Example 6.16, N-[4-(3-Cyanophenyl)-5-(2,6-dimethyl-4-pyridyl)thiazol-2-yl]-9-oxo-3,4,6,7,8,9a-hexahydro-1H-pyrazino[1,2-a]pyrazine-2-carboxamide] | 422 nM | 3.99 nM | 17.6 nM | 565 nM |
| CC(=O)NCc1cc(-c2sc(NC(=O)N3CC4(COC4)C3)nc2-c2cccc(C#N)c2)cc(C)n1 [Example 20, N-[5-[2-(Acetamidomethyl)-6-methyl-4-pyridyl]-4-(3-cyanophenyl)thiazol-2-yl]-2-oxa-6-azaspiro[3.3]heptane-6-carboxamide] | 133 nM | 6.85 nM | 39.1 nM | 2540 nM |
| Cc1cc(-c2sc(NC(=O)N3CC[C@H](C(=O)O)C3)nc2-c2cccc(C#N)c2)cc(C)n1 [Example 6.63, (3S)-1-[[4-(3-Cyanophenyl)-5-(2,6-dimethyl-4-pyridyl)thiazol-2-yl]carbamoyl]pyrrolidine-3-carboxylic acid] | 343 nM | 34.3 nM | 29.2 nM | 200 nM |
| Cc1cc(-c2sc(NC(=O)N3CCO[C@H](CO)C3)nc2-c2cccc(C#N)c2)cc(C)n1 [Example 4.21, (2S)-N-[4-(3-Cyanophenyl)-5-(2,6-dimethyl-4-pyridyl)thiazol-2-yl]-2-(hydroxymethyl)morpholine-4-carboxamide] | 10 nM | 0.3 nM | 1 nM | 265 nM |
| Cc1cc(-c2sc(NC(=O)N3CC[C@H]3C)nc2-c2cccc(C#N)c2)cc(C)n1 [Example 6.78, (2R)-N-[4-(3-Cyanophenyl)-5-(2,6-dimethyl-4-pyridyl)thiazol-2-yl]-2-methyl-azetidine-1-carboxamide] | 24 nM | 0.67 nM | 0.9 nM | 37 nM |
| Cc1cc(-c2sc(NC(=O)N3CC[C@@H](C(=O)O)C3)nc2-c2cccc(C#N)c2)cc(C)n1 [Example 6.65, (3R)-1-[[4-(3-Cyanophenyl)-5-(2,6-dimethyl-4-pyridyl)thiazol-2-yl]carbamoyl]pyrrolidine-3-carboxylic acid] | 185 nM | 45.6 nM | 17.3 nM | 295 nM |
| Cc1cc(-c2sc(NC(=O)N3CCO[C@@H](CO)C3)nc2-c2cccc(C#N)c2)cc(C)n1 [Example 4.16, (2R)-N-[4-(3-Cyanophenyl)-5-(2,6-dimethyl-4-pyridyl)thiazol-2-yl]-2-(hydroxymethyl)morpholine-4-carboxamide] | 41 nM | 0.9 nM | 2.2 nM | 265 nM |
| Cc1cc(-c2sc(NC(=O)N3CCN4C(=O)CN(C)C(=O)C4C3)nc2-c2cccc(C#N)c2)cc(C)n1 (centres unmarked) [Example 6.39, N-[4-(3-Cyanophenyl)-5-(2,6-dimethyl-4-pyridyl)thiazol-2-yl]-8-methyl-6,9-dioxo-3,4,7,9a-tetrahydro-1H-pyrazino[1,2-a]pyrazine-2-carboxamide] | 383 nM | 10.1 nM | 39.6 nM | 389 nM |
| Cc1cc(-c2sc(NC(=O)N3CCC(c4ncno4)CC3)nc2-c2cccc(C#N)c2)cc(C)n1 [Example 6.31, N-[4-(3-Cyanophenyl)-5-(2,6-dimethyl-4-pyridyl)thiazol-2-yl]-4-(1,2,4-oxadiazol-5-yl)piperidine-1-carboxamide] | 19 nM | 1.5 nM | 2.1 nM | 186 nM |
| Cc1cc(-c2sc(NC(=O)N3CCN[C@H](C(=O)O)C3)nc2-c2cccc(C#N)c2)cc(Cl)n1 [Example 3.5] | 434 nM | 11.6 nM | 11.4 nM | 928 nM |
| Cc1cc(-c2sc(NC(=O)N3CCC(N4CCOCC4)C3)nc2-c2cccc(C#N)c2)cc(C)n1 (centres unmarked) [Example 6.84, N-[4-(3-Cyanophenyl)-5-(2,6-dimethyl-4-pyridyl)thiazol-2-yl]-3-morpholino-pyrrolidine-1-carboxamide hemi formate salt] | 216 nM | 4.46 nM | 8.4 nM | 568 nM |
| Cc1cc(-c2sc(NC(=O)N3CC(=O)N[C@@H](C)C3)nc2-c2cccc(C#N)c2)cc(C)n1 [Example 6.90, (3S)-N-[4-(3-Cyanophenyl)-5-(2,6-dimethyl-4-pyridyl)thiazol-2-yl]-3-methyl-5-oxo-piperazine-1-carboxamide] | 63 nM | 3.16 nM | 10.7 nM | 106 nM |
| Cc1cc(-c2sc(NC(=O)N3CCN4C(=O)CCCC4C3)nc2-c2cccc(C#N)c2)cc(C)n1 (centres unmarked) [Example 6.43, N-[4-(3-Cyanophenyl)-5-(2,6-dimethyl-4-pyridyl)thiazol-2-yl]-6-oxo-3,4,7,8,9,9a-hexahydro-1H-pyrido[1,2-a]pyrazine-2-carboxamide] | 51 nM | 1.12 nM | 8.2 nM | 175 nM |
| COC(=O)[C@H]1CN(C(=O)Nc2nc(-c3cccc(C#N)c3)c(-c3cc(C)nc(Cl)c3)s2)CCN1 [Example 5.1, Methyl (2R)-4-[[5-(2-chloro-6-methyl-4-pyridyl)-4-(3-cyanophenyl)thiazol-2-yl]carbamoyl]piperazine-2-carboxylate] | 45 nM | 0.62 nM | 1.6 nM | 229 nM |
| Cc1cc(-c2sc(NC(=O)N3CCN[C@@H](C(N)=O)C3)nc2-c2cccc(C#N)c2)cc(Cl)n1 [Example 5.7, (3R)-N1-[5-(2-Chloro-6-methyl-4-pyridyl)-4-(3-cyanophenyl)thiazol-2-yl]piperazine-1,3-dicarboxamide] | 48 nM | 2.9 nM | 1.8 nM | 247 nM |
